Measured values: patent US6365633B1, “Method of treating eating disorders” (Knoll Pharmaceutical Company, priority 1999, dated 2002)

Key:
[1] = molecular target: [3H]Noradenaline reuptake in rat brain tissue; test: in vitro [3H]noradrenaline reuptake inhibition in rat brain tissue; assay type: biochemical; conditions: means of ≧3 separate determinations
[2] = molecular target: [3H]Dopamine reuptake in rat brain tissue; test: in vitro [3H]dopamine reuptake inhibition in rat brain tissue; assay type: biochemical; conditions: means of ≧3 separate determinations

`CC(NC(C)(C)C)C(=O)c1cccc(Cl)c1` (stereo not shown) [Bupropion] gave a Ki [1] of 2590 nM and a Ki [2] of 409 nM.
Work on `COc1ccc(C(CN(C)C)C2(O)CCCCC2)cc1` (stereo not shown) [Venlafaxine] yielded a Ki [1] of 196 nM and a Ki [2] of 2590 nM.
